We go through 1 molecule from paper PMC4418665, “Cyclization of the Urokinase Receptor-Derived Ser-Arg-Ser-Arg-Tyr Peptide Generates a Potent Inhibitor of Trans-Endothelial Migration of Monocytes” (PLoS ONE, 2015).

The test system of the test is RBL-2H3/ETFR cells. As to the kind of experiment: RBL-2H3/ETFR cell migration, xCELLigence RTCA. The test is classed as cell-based, rat. The conditions noted are these: 4 hours, Cell Index, quadruplicate. As for the experimental part: We have previously documented that SRSRY competes with the bacterial-derived N-formyl-methionyl-leucyl-phenylalanine peptide (fMLF) for binding to FPR type 1 (FPR1) and that both SRSRY and fMLF promote cell migration by triggering FPR1 internalization. […] Quantification of cell-associated fluorescence was assessed by reading cell lysates with a fluorescence plate reader. RBL-2H3 cells lack FPR1, thus they display very low uptake that was not saturable with unlabeled fMLF (Fig 2A). […] To evaluate the effect of [SRSRY] on agonist-dependent FPR1 internalization, binding experiments were performed at 37°C. […] Thus, we assessed whether [SRSRY] elicits effects on fMLF-directed cell migration. RBL-2H3/ETFR cell migration toward 10 nM fMLF was monitored in real-time for 4 hours as Cell Index changes due to the adhesion of migrating cells to microelectrodes using the xCELLigence RTCA technology as previously described. […]
Fig 2 Both linear and cyclic SRSRY peptides bind to FPR1. […] Fluorimetric measurement of cell-associated fluorescence was assed using 485 nm excitation and 535 nm emission filters. Data are expressed as a percentage of the fluorescence associated to RBL-2H3 cells exposed to FITC-fMLF alone (CTL = 100%) and represent a mean ± SD from triplicates. *Statistical significance (t-test) against None with p<0.001. […] Cell migration of RBL-2H3/ETFR cells monitored by the xCELLigence system. […]

Peptide text beside a SMILES is read from it.

Regarding `N=C(N)NCCC[C@@H]1NC(=O)[C@H](CO)NC(=O)[C@H](Cc2ccc(O)cc2)NC(=O)[C@H](CCCNC(=N)N)NC(=O)[C@H](CO)NC1=O` [[SRSRY], [Ser-Arg-Ser-Arg-Tyr]] (cyclo(RSRYS)), under “10 nM fMLF mixed with 10 nM peptide”, the “RBL-2H3/ETFR cell migration toward 10 nM fMLF in presence of peptide” value was “reduced to the basal level”. The “RBL-2H3/ETFR cell migration toward the peptide alone” value (10 nM peptide in lower chamber) is “cell migration did not change significantly”.
